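Cultured in 96-well plates, cells were exposed to test compound for 48 hours across five concentrations. GI50 is the concentration that inhibits growth by half.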 The source made the active and inactive calls. No stated cut-off is given here; in the data, active = GI50 up to about 1.1 µM and inactive = higher.
Tests used:
Assay in all cases: NCI anticancer screen, dose series, 48 h
[1] = system: EKVX
[2] = system: OVCAR-8
[3] = system: A549
[4] = system: MDA-MB-435
[5] = system: NCI/ADR-RES
[6] = system: CAKI-1
[7] = system: HOP-92
[8] = system: LOX IMVI
[9] = system: RPMI-8226
[10] = system: MDA-N
[11] = system: UACC-62
[12] = system: BT-549
[13] = system: SK-OV-3
[14] = system: SF-268
[15] = system: HCT-15
[16] = system: SW-620
[17] = system: MCF7
[18] = system: Hs-578T
[19] = system: SK-MEL-2
[20] = system: HOP-62
[21] = system: HT-29
[22] = system: K562
[23] = system: HCT-116
[24] = system: UO-31
[25] = system: ACHN
[26] = system: NCI-H460
[27] = system: SN12C
[28] = system: NCI-H226
[29] = system: SNB-19
[30] = system: HCC 2998
[31] = system: SK-MEL-28
[32] = system: 786-0
[33] = system: SR
[34] = system: NCI-H522
[35] = system: SF-295
[36] = system: SNB-75
[37] = system: TK-10
[38] = system: IGROV-1
[39] = system: SK-MEL-5
[40] = system: UACC-257
[41] = system: NCI-H23
[42] = system: OVCAR-5
[43] = system: T47D
[44] = system: Malme-3M
[45] = system: U-251
[46] = system: M14
[47] = system: RXF 393
[48] = system: COLO 205
[49] = system: MOLT-4
[50] = system: MDA-MB-231
[51] = system: A498
[52] = system: KM12
[53] = system: SF-539
[54] = system: OVCAR-4
[55] = system: DU-145
[56] = system: OVCAR-3
[57] = system: HL-60
[58] = system: CCRF-CEM
[59] = system: PC-3

## O=C(c1ccncc1)C1C(=O)c2ccccc2C1C1(O)c2ccccc2CC1C(O)c1ccncc1 (configuration not stated)
[1]
  GI50: 33 µM (inactive)
[2]
  GI50: 60 µM (inactive)
[3]
  GI50: 29.6 µM (inactive)
[4]
  GI50: 16.9 µM (inactive)
[5]
  GI50: 46.6 µM (inactive)
[6]
  GI50: 34.7 µM (inactive)
[7]
  GI50: 47.9 µM (inactive)
[8]
  GI50: 33.4 µM (inactive)
[9]
  GI50: 19 µM (inactive)
[10]
  GI50: 13.3 µM (inactive)
[11]
  GI50: 18.7 µM (inactive)
[12]
  GI50: 45.9 µM (inactive)
[13]
  GI50: 7.96 µM (inactive)
[14]
  GI50: 46.7 µM (inactive)
[15]
  GI50: 41.3 µM
[16]
  GI50: 71.8 µM (inactive)
[17]
  GI50: 39.6 µM (inactive)
[18]
  GI50: 38.6 µM (inactive)
[19]
  GI50: 23.6 µM (inactive)
[20]
  GI50: 35.6 µM (inactive)
[21]
  GI50: 35.6 µM (inactive)
[22]
  GI50: 42 µM (inactive)
[23]
  GI50: 28.2 µM (inactive)
[24]
  GI50: 13.9 µM (inactive)
[25]
  GI50: 62.1 µM (inactive)
[26]
  GI50: 34.2 µM (inactive)
[27]
  GI50: 46.9 µM (inactive)
[28]
  GI50: > 100 µM (inactive)
[29]
  GI50: 46.2 µM (inactive)
[30]
  GI50: 57.3 µM (inactive)
[31]
  GI50: 89.3 µM (inactive)
[32]
  GI50: 39.9 µM (inactive)
[33]
  GI50: 36.7 µM (inactive)
[34]
  GI50: 31.3 µM (inactive)
[35]
  GI50: 31.4 µM (inactive)
[36]
  GI50: 50 µM (inactive)
[37]
  GI50: 90.8 µM (inactive)
[38]
  GI50: 40.5 µM (inactive)
[39]
  GI50: 36 µM (inactive)
[40]
  GI50: 52.7 µM (inactive)
[41]
  GI50: 48.6 µM (inactive)
[42]
  GI50: 65.6 µM (inactive)
[43]
  GI50: 50.8 µM (inactive)
[44]
  GI50: 58.7 µM (inactive)
[45]
  GI50: 41 µM (inactive)
[46]
  GI50: 25.8 µM (inactive)
[47]
  GI50: 39.6 µM (inactive)
[48]
  GI50: 47.6 µM (inactive)
[49]
  GI50: 15.1 µM (inactive)
[50]
  GI50: 39.2 µM (inactive)
[51]
  GI50: 49.1 µM (inactive)
[52]
  GI50: 35.3 µM (inactive)
[53]
  GI50: 77.6 µM (inactive)
[54]
  GI50: 27.9 µM (inactive)

## COc1ccc(C(=O)c2sc(Nc3ccccc3)nc2N)cc1
[1]
  GI50: 60.5 µM (inactive)
[2]
  GI50: 29 µM (inactive)
[3]
  GI50: 24.2 µM (inactive)
[4]
  GI50: 1.36 µM (inactive)
[5]
  GI50: > 100 µM (inactive)
[7]
  GI50: 50.1 µM (inactive)
[8]
  GI50: > 100 µM (inactive)
[9]
  GI50: 3.72 µM (inactive)
[11]
  GI50: > 100 µM (inactive)
[12]
  GI50: > 100 µM (inactive)
[13]
  GI50: 26.9 µM (inactive)
[14]
  GI50: 28.4 µM (inactive)
[15]
  GI50: 3.84 µM
[16]
  GI50: 2.69 µM (inactive)
[17]
  GI50: 4.9 µM (inactive)
[18]
  GI50: 23.3 µM (inactive)
[19]
  GI50: 4.88 µM (inactive)
[20]
  GI50: 21 µM (inactive)
[21]
  GI50: > 100 µM (inactive)
[22]
  GI50: 2.25 µM (inactive)
[24]
  GI50: 55.8 µM (inactive)
[25]
  GI50: > 100 µM (inactive)
[26]
  GI50: > 100 µM (inactive)
[27]
  GI50: > 60.5 µM (inactive)
[28]
  GI50: > 100 µM (inactive)
[55]
  GI50: > 68.9 µM (inactive)
[29]
  GI50: 22.7 µM (inactive)
[30]
  GI50: > 100 µM (inactive)
[31]
  GI50: > 100 µM (inactive)
[32]
  GI50: 13.1 µM (inactive)
[33]
  GI50: 0.778 µM (active)
[56]
  GI50: > 26.9 µM (inactive)
[34]
  GI50: 6.82 µM (inactive)
[35]
  GI50: 32.4 µM (inactive)
[57]
  GI50: 2.2 µM (inactive)
[37]
  GI50: > 55.7 µM (inactive)
[38]
  GI50: 14.3 µM (inactive)
[39]
  GI50: > 100 µM (inactive)
[40]
  GI50: > 100 µM (inactive)
[41]
  GI50: > 100 µM (inactive)
[42]
  GI50: > 100 µM (inactive)
[43]
  GI50: > 100 µM (inactive)
[58]
  GI50: 1.17 µM (inactive)
[44]
  GI50: > 100 µM (inactive)
[45]
  GI50: 12.7 µM (inactive)
[59]
  GI50: > 72.8 µM (inactive)
[46]
  GI50: > 100 µM (inactive)
[47]
  GI50: 13.4 µM (inactive)
[49]
  GI50: 2.16 µM (inactive)
[50]
  GI50: > 75.7 µM (inactive)
[51]
  GI50: > 100 µM (inactive)
[53]
  GI50: 14.3 µM (inactive)
[54]
  GI50: 10.7 µM (inactive)
